Assay results as given in US20180066005A1, “TRANS-RESVERATROL POLYSACCHARIDE, METHOD OF PRODUCING THE SAME, AND COMPOSITION COMPRISING THE SAME” (FAITH CO., LTD., priority 2013, published 2018).

Legend:
[1] = Solubility in water at room temperature; format: physicochemical; details: for solubility in distilled water: allowed to stand at room temperature, turbid or transparent tube (FIG. 7)
Method: FIG. 7 is a photographic image showing trans-resveratrol-3-O-β-D-monoglucoside contained in the fraction showing a single peak detected in FIG. 1 (A), and trans-resveratrol-3-O-β-D-diglucoside contained in the fraction (a) in FIG. 1 (B), after they were dissolved in distilled water and allowed to stand at room temperature.

[2] = system: NFκB; assay: Suppression of NFκB expression in epithelial tissue models (quantitative PCR); format: cell-based, human; details: 30 μM, 50 μM and 100 μM, three weeks after addition (FIG. 11)
Method: (§1) An experiment was conducted to confirm the effect of suppressing the expression of NFκB, which is a transcription factor that induces inflammation. Epithelial tissue models were produced using a normal human three-dimensional epithelial tissue model production kit MelanoDerm (MEL-300; Kurabo). RSV was added to the culture media so that the final concentration was 0 μM (Ctrl), 30 μM, 50 μM, and 100 μM, and the tissue models were cultured according to the manual of the kit. RNA in the skin tissue models was collected three weeks after the addition of RSV, and subjected to quantitative PCR analysis to measure the expression level of NFκB.

[3] = system: normal human three-dimensional epithelial tissue model MelanoDerm; assay: Whitening effect: reduction in black areas in epithelial tissue models (MelanoDerm); format: cell-based
Method: as §1, with “NFκB. […] Epithelial tissue models were produced using the above kit. RSV was added to the culture media so that the final concentration was 0 μM (Ctrl), 30 μM, 50 μM, and 100 μM, and the tissue models were cultured according to the manual of the kit. Photographic images of the epithelial tissue models were taken three weeks after the addition of RSV. The degree of reduction in black areas due to the addition of RSV was calculated using ImageJ image-analysis software, and the results were graphed. […] Epithelial tissue models were produced in the same manner as in Example 5. RSV, 4 M-RSV, and 3P-RSV were each added so that the final concentration was 50 μM, and the skin tissue models were observed.” for “NFκB.”

[4] = system: 3T3 mouse fibroblasts; assay: Rescue activity from cell death induced by hydrogen peroxide; format: cell-based; details: 10 μM for 3 hours, then hydrogen peroxide 15 μM, culture for 12 hours (FIG. 10)
Method: Subsequently, the cultured cells were fixed with 4% paraformaldehyde and stained with Hoechst. Cells in which aggregation in the cell nucleus was observed were determined to be cell death, and the percentage of cell death (vertical axis in the graph) was calculated.
An experiment was conducted to confirm the trans-resveratrol polysaccharide's rescue activity from cell death. RSV, 4M-RSV, and 3P-RSV were each added to a culture medium of 3T3 mouse fibroblasts so that the final concentration was 10 μM, and the fibroblasts were cultured with 5% carbon dioxide at 37° C. for 3 hours. Subsequently, hydrogen peroxide was added to the culture medium so that the final concentration was 15 μM, thereby inducing cell death.
After culture for 12 hours, cell death was determined in the same manner as in Example 1, and the percentage of cell death was calculated.

OC[C@H]1O[C@@H](Oc2cc(O)cc(/C=C/c3ccc(O)cc3)c2)[C@H](O)[C@@H](O)[C@@H]1O [trans-resveratrol-3-O-β-D-monoglucoside, trans-Resveratrol-3-O-β-D-glucopyranoside, reference compound]
solubility in distilled water [1]: not dissolved in distilled water at room temperature

Oc1ccc(/C=C/c2cc(O)cc(O)c2)cc1 [RSV, Trans-resveratrol]
expression level of NFκB [2]: suppressed the expression level of NFκB in the epithelial tissue models in a concentration-dependent manner
reduction in black areas (whitening effect) ([3]; 30 μM, 50 μM and 100 μM, three weeks after addition, ImageJ (FIG. 12)): reduced black areas in the epithelial tissue models in a concentration-dependent manner

OCC1OC(Oc2cc(O)cc(/C=C/c3ccc(OC4OC(CO)C(OC5OC(CO)C(O)C(O)C5O)C(O)C4O)cc3)c2)C(O)C(O)C1O [4M-RSV, trans-resveratrol-O-β-D-3-monoglucoside-4′-diglycoside]
rescue activity from cell death induced by hydrogen peroxide (percentage of cell death) [4]: cell death almost equal to that of the case in which hydrogen peroxide was not added (Ctrl)
degree of reduction in black areas per molecular unit of RSV (whitening effect) ([3]; 50 μM (FIG. 13)): significantly excellent whitening effect

OCC1OC(OC2C(CO)OC(Oc3cc(O)cc(/C=C/c4ccc(O)cc4)c3)C(O)C2O)C(O)C(O)C1O [trans-resveratrol-3-O-β-D-diglucoside, trans-Resveratrol-3-O-β-D-diglucoside]
solubility in distilled water [1]: easily dissolved in distilled water at room temperature
water solubility at ordinary temperature ([1]; ordinary temperature, concluded from ethyl acetate/water partition and HPLC fractions): could acquire water solubility at ordinary temperature
